Data taken from paper PMC9504842, “Comprehensive Metabolic Profiling of Euphorbiasteroid in Rats by Integrating UPLC-Q/TOF-MS and NMR as Well as Microbial Biotransformation” (Metabolites, 2022).

Legend:
[1] = Metabolite detection in rats (plasma, urine, feces) after oral euphorbiasteroid by UPLC-Q/TOF-MS; format: in vivo, Sprague-Dawley rats; settings: single oral dose 100 mg/kg euphorbiasteroid
Method: For metabolite separation and detection, chromatographic analyses were performed using a Waters Acquity UPLC I-class system (Waters, Milford, MA, USA), equipped with an auto-sampler, a binary solvent delivery system, an online degasser, and a photodiode array detector. An ACQUITY UPLC® HSS T3 column (2.1 × 150 mm, 1.8 μm, Waters) protected with a HSS T3 VanGuard ™ Pre-Column 3/Pk (2.1 × 5.0 mm, 1.8 μm, Waters) was used. The optimized parameters were set as follows: the mobile phase consisted of eluent A (0.1% formic acid in water, v/v) and eluent B (acetonitrile). The flow rate was 0.3 mL/min. The column and auto-sampler temperatures were maintained at 40 °C and 4 °C, respectively. The gradient elution program was optimized as follows: 0–9 min, 30–70% B; 9–13 min, 70–90% B; 13–17 min, 90–100% B; 17–20 min, 100–100% B.
The mass spectrometry detection was performed on the SYNAPT G2-Si HDMS system, equipped with an electrospray ionization (ESI) source (Waters Corp., Manchester, UK). A positive ion mode was conducted in this analysis. Mass spectrometry conditions were finally set as follows: capillary voltage of 3.0 kV, cone voltage of 40 V, source temperature of 120 °C, and de-solvation temperature of 400 °C. Nitrogen was used as the desolvation and cone gas with a flow rate of 800 and 50 L/h, respectively, and the full-scan mass range was set as m/z 50–1500 Da. In the auto mass spectrometry mode, the collision-induced dissociation energies were set at 0 eV for the precursor ion at the low-energy mode, and the collision-induced dissociation energies were set from 2 to 10 eV for the high-energy mode. Real-time data were calibrated using an external reference (LockSpray™) at a concentration of 0.2 ng/mL with an infusion flow rate of 5 μL/min, generating a reference ion for the positive ion mode (m/z 556.2771) during the UPLC-MS analysis. Data were acquired and processed using MassLynx ™ NT 4.1 software (Waters, Milford, MA, USA).
Male Sprague-Dawley rats (200–220 g) were commercially supplied by Shanghai Sippr-BK Laboratory Animal Co., Ltd. (Shanghai, China) and were housed in a humidity- and temperature-controlled room (50 ± 10% and 22–24 °C) with a 12-h light/dark cycle. The experimental rats were allowed to access food and water ad libitum and acclimatized to the conditions mentioned above for a week, then fasted overnight but with free access to water before the experiments. Euphorbiasteroid was dissolved in soybean oil solution (containing 0.5% ethanol) to form a concentration of 10 mg/mL. A single dose of 100 mg/kg euphorbiasteroid was orally administered to rats and the same concentration of soybean oil solution (containing 0.5% ethanol) was administered as a blank control. All animal procedures were performed in accordance with the Guidelines for Care and Use of Laboratory Animals of Naval Medical University and approved by the Animal Ethics Committee of Naval Medical University.
Blood samples (0.5 mL) were collected from six rats through the orbital sinus before administration (blank sample) and 0.25, 0.5, 1, 2, 4, 6, and 12 h after administration. Plasma samples were prepared by centrifugation at 4000 rpm for 10 min. For urine and feces sampling, 12 rats were divided into an administration group and a blank group, and were placed separately in stainless steel metabolic cages. Urine and feces samples were collected in containers surrounded by ice over 0–6, 6–12, and 12–24 h after drug administration. The mixed urine samples were centrifuged at 4000 rpm for 10 min at 4 °C to obtain the supernatants, and fecal samples were left in a cool and dry place until dry. All the biological samples were frozen at −80 °C before analysis.
An aliquot of 200 µL of plasma and urine samples was put in a 1.5 mL tube, respectively. 800 µL of acetonitrile was added and vortexed for 5 min to extract metabolites. Feces samples (1.0 g) were crushed and then ultrasonically extracted with acetonitrile (10 mL) for 30 min. […]

[2] = In vitro incubation of euphorbiasteroid with rat liver microsomes, metabolite detection; format: in vitro ADME; settings: 37 °C, 1 h, NADPH regenerating system
Method: The microsomal incubation approach was based on previous metabolism studies published by Wintermeyer et al. and Franziska et al.. A 200 μL incubation system containing 10 μL of solution A, 2 μL of solution B, 5 μL of rat liver microsomes (20 mg/mL) and 182 μL 0.1 M PBS buffer (pH = 7.4) was constructed. The above solution was heated in a 37 °C water bath, then 1 μL of euphorbiasteroid (dissolved in DMSO solution, 10 mM) was used to start the reaction, and the mixture was then incubated at 37 °C for 1 h. The reactions were terminated by the addition of 200 μL of ice-cold acetonitrile. The mixture was then centrifuged at 13,000 rpm for 10 min, and a 2-μL aliquot of the supernatant was directly injected into the UPLC-Q-TOF-MS system.
(§1) First, the metabolites of euphorbiasteroid in rats (plasma, urine, and feces), RLMs, and C. elegans culture medium were predicted by setting the prototype components and potential biological metabolic reactions in UNIFI 4.1 software. Then, the predicted metabolites in each sample were further compared according to the characteristic mass spectrum behaviors (including parent ions, internal cleavage in the ion source, and characteristic fragment ions of each metabolite) and retention times.

[3] = system: Cunninghamella elegans bio-110930; assay: Microbial transformation of euphorbiasteroid, metabolite detection; settings: C. elegans bio-110930 culture with euphorbiasteroid
Method: The biotransformation process was conducted at two scales: preliminary screening and preparative. Preliminary screening scale biotransformation of euphorbiasteroid was carried out in 250 mL Erlenmeyer flasks containing 100 mL of liquid medium. The flasks were placed on a rotary shaker (160 rpm, 28 °C). A standard two-stage fermentation protocol was employed in all experiments. After 2 days of pre-culture, the substrates of 5 mg (dissolved in 0.5 mL of acetone) were added into each flask. Taking 1 mL samples on days 0, 2, 4, 7, 10, and 14, samples were centrifuged and the degree of transformation was compared to controls on TLC and HPLC, and a 2-μL aliquot of the supernatant was directly injected into the UPLC-Q-TOF-MS system. Culture controls consisted of sterile medium, in which microorganisms were grown under identical conditions without substrate. Substrate controls were composed of sterile medium and the same amount of substrate incubated under the same conditions without microorganisms.
as §1

[4] = system: SH-SY5Y neuroblastoma cells; assay: CCK-8 cell cytotoxicity assay, SH-SY5Y; format: cell-based; settings: Homo sapiens, 72 h, read-out: IC50 (μM) SH-SY5Y
Method: (§2) Cell cytotoxicity was determined by the CCK-8 assay. Four strains of human cells (SH-SY5Y) were seeded in 96-well plates at a density of 3 × 10^3 cells/well under 37 °C and 5% CO2 for 12 h and subsequently treated with the test sample solution (euphorbiasteroid and its metabolites, 10 μL) for 72 h. After treatment, each well with 10 μL CCK-8 reagent was incubated for 1–2 h in the incubator. Afterwards, the optical OD-value was measured at 450 nm through a microplate reader. Three multiple wells were set as parallel experimental groups.
(§3) Euphorbiasteroid and its metabolites were tested for their cytotoxicity on human cell lines SH-SY5Y, LO2, AC-16, and HK-2 by the CCK-8 assay. […] Therefore, considering the high content of euphorbiasteroid in Euphorbiae semen, it was speculated that the metabolites from hydroxylation and hydrolysis might be the potential toxic constituents of Euphorbiae semen.

LO2 cells = assay: CCK-8 cell cytotoxicity assay, LO2; format: cell-based; settings: Homo sapiens, L02, 72 h, read-out: IC50 (μM) LO2
Method: as §2, §3

AC-16 cells = assay: CCK-8 cell cytotoxicity assay, AC-16; format: cell-based; settings: Homo sapiens, 72 h, read-out: IC50 (μM) AC-16
Method: as §2, §3

HK-2 cells = assay: CCK-8 cell cytotoxicity assay, HK-2; format: cell-based; settings: Homo sapiens, HK-2, 72 h, read-out: IC50 (μM) HK-2
Method: as §2, §3

CC(=O)OC1C2C(OC(=O)Cc3ccccc3)C(C)CC2(OC(C)=O)C(=O)C(C)=CC2C(CCC13CO3)C2(C)CO (stereo not drawn) [Compound M1, 18α-hydroxyl euphorbiasteroid]
√: Distribution Rat Faeces (metabolite detected) [1] | Distribution Rat Plasma (metabolite detected) [1] | Distribution Rat Urine (metabolite detected) [1] | Distribution RLMs (metabolite detected) [2] | Distribution Fungi (metabolite detected) [3]

euphorbiasteroid 2′-O-β-D-glucopyranoside [Compound M29]
√: Distribution Fungi (metabolite detected) [3]

CC(=O)OC1C2C(OC(=O)Cc3ccccc3O)C(C)CC2(OC(C)=O)C(=O)C(C)=CC2C(CCC13CO3)C2(C)C (centres unmarked) [Compound M5, 2′-hydroxyl euphorbiasteroid]
√: Distribution Rat Faeces (metabolite detected) [1] | Distribution Rat Plasma (metabolite detected) [1] | Distribution RLMs (metabolite detected) [2] | Distribution Fungi (metabolite detected) [3]

CC(=O)OC1C2C(OC(=O)Cc3ccccc3O)C(C)CC2(OC(C)=O)C(=O)C(C)=CC2C(CCC13CO3)C2(C)CO (stereo not drawn) [Compound M8, 18α,2′-dihydroxyl euphorbiasteroid]
√: Distribution Rat Faeces (metabolite detected) [1] | Distribution Rat Plasma (metabolite detected) [1] | Distribution Rat Urine (metabolite detected) [1] | Distribution RLMs (metabolite detected) [2] | Distribution Fungi (metabolite detected) [3]

CC(=O)OC1C2C(OC(=O)C(O)c3ccccc3)C(C)CC2(OC(C)=O)C(=O)C(C)=CC2C(CCC13CO3)C2(C)C (centres unmarked) [Compound M4, 7′-hydroxyl euphorbiasteroid]
√: Distribution Rat Faeces (metabolite detected) [1] | Distribution Rat Plasma (metabolite detected) [1] | Distribution Rat Urine (metabolite detected) [1] | Distribution RLMs (metabolite detected) [2] | Distribution Fungi (metabolite detected) [3]

CC(=O)OC1C2C(OC(=O)CC3=CC=CC(O)C3O)C(C)CC2(OC(C)=O)C(=O)C(C)=CC2C(CCC13CO3)C2(C)C (centres unmarked) [Compound M12, 5′,6′-dihydroxyl dihydroeuphorbiasteroid]
√: Distribution Rat Faeces (metabolite detected) [1] | Distribution Rat Plasma (metabolite detected) [1] | Distribution RLMs (metabolite detected) [2] | Distribution Fungi (metabolite detected) [3]

CC(=O)OC1C2C(OC(=O)Cc3ccccc3)C(C)CC2(OC(C)=O)C(=O)C(C)=CC2C(CCC13CO3)C2(C)C(=O)O (stereo not drawn) [Compound M16, 18α-carboxyl euphorbiasteroid]
√: Distribution Rat Faeces (metabolite detected) [1] | Distribution Rat Plasma (metabolite detected) [1] | Distribution Rat Urine (metabolite detected) [1] | Distribution RLMs (metabolite detected) [2] | Distribution Fungi (metabolite detected) [3]

CC(=O)OC1C2C(OC(=O)Cc3ccccc3)C(CO)CC2(OC(C)=O)C(=O)C(C)=CC2C(CCC13CO3)C2(C)C (centres unmarked) [Compound M6]
√: Distribution Rat Faeces (metabolite detected) [1] | Distribution Rat Plasma (metabolite detected) [1] | Distribution RLMs (metabolite detected) [2]

CC(=O)OC1C2C(OC(=O)Cc3ccc(O)cc3)C(C)CC2(OC(C)=O)C(=O)C(C)=CC2C(CCC13CO3)C2(C)C (centres unmarked) [Compound M2, 4′-hydroxyl euphorbiasteroid]
√: Distribution Rat Faeces (metabolite detected) [1] | Distribution Rat Urine (metabolite detected) [1] | Distribution RLMs (metabolite detected) [2] | Distribution Fungi (metabolite detected) [3]

CC(=O)OC1C2C(OC(=O)Cc3ccccc3)C(C=O)CC2(OC(C)=O)C(=O)C(C)=CC2C(CCC13CO3)C2(C)C (centres unmarked) [Compound M15]
√: Distribution Rat Faeces (metabolite detected) [1] | Distribution Rat Plasma (metabolite detected) [1] | Distribution Rat Urine (metabolite detected) [1]

CC(=O)OC1C2C(OC(=O)CC3=CC(O)C(O)C=C3)C(C)CC2(OC(C)=O)C(=O)C(C)=CC2C(CCC13CO3)C2(C)C (centres unmarked) [Compound M13, 3′,4′-dihydroxyl dihydroeuphorbiasteroid]
√: Distribution Rat Faeces (metabolite detected) [1] | Distribution Rat Plasma (metabolite detected) [1] | Distribution RLMs (metabolite detected) [2] | Distribution Fungi (metabolite detected) [3]

CC(=O)OC1C2C(OC(=O)Cc3ccccc3)C(C)CC2(OC(C)=O)C(=O)C(C)=CC2C(CCC13CO3)C2(C)C (centres unmarked) [Compound M0, Euphorbiasteroid]
97.7 ± 2.13 µM: IC50 (AC-16 cells)
> 100 µM: IC50 (LO2 cells) | IC50 (HK-2 cells)
55 ± 1.2 µM: IC50 [4]

CC(=O)O[C@H]1[C@H]2[C@@H](OC(=O)Cc3ccccc3O[C@@H]3O[C@H](CO)[C@@H](O)[C@H](O)[C@H]3O)[C@@H](C)C[C@]2(OC(C)=O)C(=O)/C(C)=C/C2C(CC[C@@]13CO3)C2(C)C (some centres unmarked) [Compound M28]
√: Distribution Rat Faeces (metabolite detected) [1]

CC(=O)OC1C2C(OC(=O)Cc3ccccc3)C(C(=O)O)CC2(OC(C)=O)C(=O)C(C)=CC2C(CCC13CO3)C2(C)C (centres unmarked) [Compound M17]
√: Distribution Rat Faeces (metabolite detected) [1] | Distribution Rat Plasma (metabolite detected) [1] | Distribution RLMs (metabolite detected) [2] | Distribution Fungi (metabolite detected) [3]

CC(=O)OC1C2C(OC(=O)Cc3ccccc3)C(C=O)CC2(OC(C)=O)C(=O)C(C)=CC2C(CCC13CO3)C2(C)C (centres unmarked) [Compound M14]
√: Distribution Rat Faeces (metabolite detected) [1] | Distribution Rat Plasma (metabolite detected) [1] | Distribution Rat Urine (metabolite detected) [1] | Distribution Fungi (metabolite detected) [3]
